{"source": "patent US11311598B2", "about": "“Peptides and analogs for use in the treatment of oral mucositis” (Soligenix, Inc., priority 2013, dated 2022)", "key": {"[1]": {"tested_on": "CYP450 enzymes", "experiment": "processing by or inhibition of CYP450 enzymes", "assay_type": "in vitro ADME"}, "[2]": {"tested_on": "cynomolgus monkey", "experiment": "cardiovascular (CV)/pulmonary study in cynomolgus monkey", "assay_type": "in vivo", "source_text": "In summary, the major toxicological finding was an acute-onset respiratory depression, accompanied by labored breathing, recumbency and transient decreased activity."}, "[3]": {"tested_on": "MRSA (UC6685)", "experiment": "MRSA peritoneal infection model in combination with vancomycin", "assay_type": "in vivo, mouse", "conditions": "female CF-1 mice, 50 mg/kg IV 48 or 72 h prior to inoculation, with vancomycin 3 mg/kg SC 1 and 5 h after infection; 5 days", "method": "RIVPA (SEQ ID NO. 5) (50 mg/kg) or saline treatment was administered IV either 48 or 72 h prior to inoculation with MRSA (UC6685; 8.2×10^7 colony forming units [cfu]) to female CF-1 mice (N=10/group). Vancomycin treatment (3 mg/kg) was administered subcutaneously (SC), 1 and 5 h after infection. Survival was monitored once daily for 5 days."}, "[4]": {"tested_on": "S. aureus (Catalog No. 25923, ATCC)", "experiment": "S. aureus acute peritoneal infection model, local IP treatment", "assay_type": "in vivo, mouse", "conditions": "female CD-1 mice, 9.5 mg/kg IP 4 h after infection; 24 h after infection", "method": "Intraperitoneal (IP) injection of S. aureus (Catalog No. 25923, ATCC, 6×10^7 cfu) with 5% mucin was administered IP to female CD-1 mice (N=8/group) and RIVPA (SEQ ID NO. 5) (9.5 mg/kg) was injected IP 4 h later. Mice were sacrificed 24 h after infection and peritoneal lavage fluid was assessed for bacterial counts. The results of this study are shown in FIG. 11 (each data point represents the result from an individual mouse—dead mice were given the highest bacterial count of any mouse obtained in the study and are represented as open symbols in the graph)."}, "[5]": {"tested_on": "central nervous system (CNS)", "experiment": "effects on the central nervous system in any study", "assay_type": "in vivo", "conditions": "any study at any dose level", "method": "No effects of RIVPA (SEQ ID NO. 5) have been observed on the central nervous system (CNS) in any study at any dose level and little or no radiolabelled RIVPA (SEQ ID NO. 5) was found in the mouse CNS at dose levels of either 20 or 90 mg/kg."}, "[6]": {"tested_on": "Klebsiella pneumoniae (Catalog No. 43816, ATCC)", "experiment": "Klebsiella peritoneal infection model", "assay_type": "in vivo, mouse", "method": "RIVPA (SEQ ID NO. 5) treatment (24 mg/kg) was administered either IP (24 h prior to infection or 4 h post-infection) or IV (4 h post-infection) to female Balb/c mice (N=8/group) inoculated with Klebsiella pneumoniae (Catalog No. 43816, ATCC) at either 2.8×10^5 cfu (FIG. 13—panel A) or 5.3×10^2 cfu (FIG. 13—panel B) and survival was monitored over 24 h. A survival endpoint is shown for animals receiving the higher inoculum of bacteria (panel A)."}, "[7]": {"tested_on": "S. aureus", "experiment": "S. aureus infection studies, single IV RIVPA treatment (Table 2 summary)", "assay_type": "in vivo, mouse", "conditions": "for % Successful Treatments Any Dose Schedule: success = at least 20% increase in survival over saline control"}, "[8]": {"experiment": "Phase 1 study, human pharmacokinetics", "assay_type": "in vivo", "method": "In the single-dose phase of a healthy volunteer Phase 1 trial, RIVPA (SEQ ID NO. 5) was rapidly eliminated, with plasma levels decreasing to less than 10 percent of the maximum concentration (Cmax) within 9 min after the start of the 4-minute IV infusion. Following the rapid decline, a slower elimination phase was observed. […] Maximum plasma concentrations and total exposure levels were dose-proportional and clearance of RIVPA (SEQ ID NO. 5) from the circulation was rapid, consistent with the mouse and NHP experience.\nIn light of the high clearance and short elimination half-life, accumulation following daily injection was not expected to occur."}, "[9]": {"tested_on": "MRSA", "experiment": "MRSA skin infection model", "assay_type": "in vivo, mouse", "method": "Infection was initiated 1 day after the hair was removed from the dorsal area of each mouse. RIVPA (SEQ ID NO. 5) (25 mg/kg IV or 100 mg/kg SC) was administered 4 h prior to infection and at various times after infection as indicated. Oral linezolid was used as the comparator and was administered daily at 12.5 mg/kg. On Day 0 (at −1 h) each mouse was anesthetized using isoflurane and the shaved dorsal skin was damaged by 7 consecutive applications and removals of surgical tape. This lesion was then immediately infected by topical administration of 10 μL of the bacterial suspension, delivering a total challenge of 7.6 login cfu per mouse. Efficacy was evaluated by measurement of the bacterial burden in punch biopsies of the skin at 48 h (FIG. 14—panel A) and 96 h (FIG. 14—panel B) following the bacterial challenge and by macroscopic assessment of digital images of the skin by a blinded, board-certified pathologist at 48 h (FIG. 14—panel C) and 96 h (FIG. 14—panel D) after infection. […] The mean bacterial burden for each therapeutic group was statistically compared to that of its time-matched saline control through use of a t-test comparison of means, assuming unequal variances, performed on Excel. Comparisons which returned a p value […] were considered statistically different."}, "[10]": {"tested_on": "Gram-positive and Gram-negative infections", "conditions": "mouse, in vivo"}, "[11]": {"tested_on": "S. aureus (Catalog No. 29213, ATCC)", "experiment": "S. aureus thigh abscess infection model in neutropenic mice", "assay_type": "in vivo, mouse", "conditions": "neutropenic female Swiss albino mice, 50 mg/kg IM 24 h prior to infection; 24 h after infection", "method": "Female Swiss albino mice (N=8/group) were rendered neutropenic by treatment with Cp (100 mg/kg), 3 and 1 days before IM infection with S. aureus (Catalog No. 29213, ATCC, ^˜9.5×10^5 cfu). RIVPA (SEQ ID NO. 5) (50 mg/kg) was administered IM 24 h prior to infection and vancomycin (100 mg/kg) was administered SC at 1, 6 and 18 h after infection. The number of bacterial cfu present in the infected thigh was assessed 24 h after initiation of infection in each group."}}, "note": "Where no end group is shown, it is not given here."}
{"substance": "RIVPA-NH2 [RIVPA (SEQ ID NO. 5), RIVPA]", "values": [{"measurement": "inhibition of CYP450 enzymes", "setting": "[1]", "result": "lack"}, {"measurement": "processing by CYP450 enzymes", "setting": "[1]", "result": "lack"}, {"measurement": "clinical signs", "setting": "[2]; 80 mg/kg, during dosing", "result": "transient drooping eye lids and prostration"}, {"measurement": "clinical signs", "setting": "[2]; 220 mg/kg", "result": "transient, severe clinical signs"}, {"measurement": "respiratory/cardiovascular effects and mortality", "setting": "[2]; 220 mg/kg, 1 animal", "result": "marked reduction in respiratory rate followed by bradycardia, hypotension and death"}, {"measurement": "respiratory effects", "setting": "[2]; 20 or 80 mg/kg", "result": "No respiratory effects"}, {"measurement": "cardiac toxicity or QT prolongation", "setting": "[2]; nonhuman primates", "result": "no cardiac toxicity or QT prolongation"}, {"measurement": "cardiovascular effects and ECG parameters", "setting": "[2]; single IV doses of 20 or 80 mg/kg", "result": "no cardiovascular effects or changes in electrocardiogram (ECG) parameters"}, {"measurement": "survival", "setting": "[3]", "result": "increased survival"}, {"measurement": "reduction of bacterial load in peritoneal lavage fluid", "setting": "[4]", "result": "over 7 logs"}, {"measurement": "effects on the central nervous system (CNS)", "setting": "[5]", "result": "No effects"}, {"measurement": "systemic versus local administration", "setting": "[6]; 24 mg/kg IV vs IP", "result": "as good or better than local administration"}, {"measurement": "survival at the lower inoculum", "setting": "[6]; 5.3×10^2 cfu, 24 h", "result": "survived in all groups"}, {"measurement": "survival", "setting": "[6]; female Balb/c mice, 24 mg/kg IP or IV, 24 h", "result": "increased survival"}, {"measurement": "dose dependence of effects", "setting": "[7]; between 1 and 50 mg/kg in mouse", "result": "dose dependent"}, {"measurement": "dose levels consistently demonstrating efficacy", "setting": "[7]; mouse, stand-alone IV", "result": "≥ 25", "unit": "mg/kg"}, {"measurement": "% Successful Treatments RIVPA administered 4 h prior to infection", "setting": "[7]; single IV dose 1 mg/kg", "result": 0, "unit": "%"}, {"measurement": "% Successful Treatments Any Dose Schedule", "setting": "[7]; single IV dose 1 mg/kg", "result": 0, "unit": "%"}, {"measurement": "% Successful Treatments RIVPA administered 4 h prior to infection", "setting": "[7]; single IV dose 5 mg/kg", "result": 33, "unit": "%"}, {"measurement": "% Successful Treatments Any Dose Schedule", "setting": "[7]; single IV dose 5 mg/kg", "result": 42, "unit": "%"}, {"measurement": "% Successful Treatments RIVPA administered 4 h prior to infection", "setting": "[7]; single IV dose 25 mg/kg", "result": 50, "unit": "%"}, {"measurement": "% Successful Treatments Any Dose Schedule", "setting": "[7]; single IV dose 25 mg/kg", "result": 67, "unit": "%"}, {"measurement": "% Successful Treatments RIVPA administered 4 h prior to infection", "setting": "[7]; single IV dose 50 mg/kg", "result": 100, "unit": "%"}, {"measurement": "% Successful Treatments Any Dose Schedule", "setting": "[7]; single IV dose 50 mg/kg", "result": 100, "unit": "%"}, {"measurement": "pre-dose concentrations", "setting": "[8]; daily for 7 days, Days 5, 6, 7 and Day 8 (24 h after start of infusion on Day 7), all subjects", "result": "below the lower limit of quantitation (LLOQ)"}, {"measurement": "clearance from the circulation", "setting": "[8]; human subjects, IV administration", "result": "within minutes"}, {"measurement": "Tmax", "setting": "[8]; human, plasma, intravenous, after the start of infusion, dose range 0.15 mg/kg to 8 mg/kg, read-out: mean time of maximum concentration (Tmax)", "result": "4 to 4.8", "unit": "min"}, {"measurement": "maximum plasma concentrations and total exposure levels versus dose", "setting": "[8]; single-dose phase", "result": "dose-proportional"}, {"measurement": "plasma levels relative to the maximum concentration (Cmax)", "setting": "[8]; within 9 min after the start of the 4-minute IV infusion, single-dose phase", "result": "less than 10%"}, {"measurement": "skin healing", "setting": "[9]; 25 mg/kg IV or 100 mg/kg SC, 4 h prior to infection and after", "result": "accelerating skin healing"}, {"measurement": "bacterial load in skin punch biopsies relative to control", "setting": "[9]; 48 or 96 h after bacterial challenge", "result": "neither linezolid nor RIVPA (SEQ ID NO. 5) reduced bacterial load"}, {"measurement": "resolution of tissue damage in topically MRSA-infected skin", "setting": "[9]; FIG. 14", "result": "enhances"}, {"measurement": "duration of pharmacodynamic effect", "setting": "[10]", "result": "up to 5 days"}, {"measurement": "dose levels with consistent efficacy", "setting": "[10]; iv", "result": "≥ 25", "unit": "mg/kg"}, {"measurement": "bacterial load in the infected thigh", "setting": "[11]", "result": "significantly reduced"}]}
